In this assay the target is T1, bovine cerebral TPK1 (Bos taurus, UniProt A0A3Q1MT31).
T1 construct: bovine cerebral TPK1; from tissue; host or cells: bovine brain (cerebrum)
Kind of assay: Inhibitory activity against P-GS1 phosphorylation by bovine cerebral TPK1. The assay is classed as biochemical. The settings on record: 41.7 μM [γ-32P] ATP, 25° C. for 2 hours. Here is the method:
Inhibitory Activity of the Medicament of the Present Invention Against P-GS1 Phosphorylation by Bovine Cerebral TPK1
A mixture containing 100 mM MES-sodium hydroxide (pH 6.5), 1 mM magnesium acetate, 0.5 mM EGTA, 5 mM β-mercaptoethanol, 0.02% Tween 20, 10% glycerol, 12 μg/ml P-GS1, 41.7 μM [γ^−32P] ATP (68 kBq/ml), bovine cerebral TPK1 and a compound shown in Table (a final mixture contained 1.7% DMSO deriving from a solution of a test compound prepared in the presence of 10% DMSO) was used as a reaction system. The phosphorylation was started by adding ATP, and the reaction was conducted at 25° C. for 2 hours, and then stopped by adding 21% perchloric acid on ice cooling. The reaction mixture was centrifuged at 12,000 rpm for 5 minutes and adsorbed on P81 paper (Whatmann), and then the paper was washed four times with 75 mM phosphoric acid, three times with water and once with acetone. The paper was dried, and the residual radioactivity was measured using a liquid scintillation counter.

T1 sequence (A0A3Q1MT31 1-419): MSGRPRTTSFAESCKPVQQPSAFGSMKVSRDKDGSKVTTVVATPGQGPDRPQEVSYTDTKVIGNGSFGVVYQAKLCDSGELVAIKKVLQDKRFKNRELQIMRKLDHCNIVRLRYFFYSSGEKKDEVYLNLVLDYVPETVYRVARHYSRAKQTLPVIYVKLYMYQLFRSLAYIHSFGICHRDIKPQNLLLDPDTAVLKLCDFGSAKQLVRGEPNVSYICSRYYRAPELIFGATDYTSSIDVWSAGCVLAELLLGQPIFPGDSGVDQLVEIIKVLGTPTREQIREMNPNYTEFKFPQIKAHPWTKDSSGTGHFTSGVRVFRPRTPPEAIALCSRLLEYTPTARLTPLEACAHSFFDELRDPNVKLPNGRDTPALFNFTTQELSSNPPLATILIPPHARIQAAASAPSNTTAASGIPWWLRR

For orientation: IC50 means the point on the concentration scale where inhibition reaches its midpoint. `O=c1cc(-c2ccncn2)nc(N2CCO[C@@H](c3ccc(F)cc3)C2)[nH]1` [Compound 2, 2-[(2S)-2-(4-Fluorophenyl)morpholin-4-yl]-1H-[4,4′]bipyrimidinyl-6-one] showed an IC50 of 86.3 nM.

`O=c1cc(-c2ccncc2F)nc(N2CCO[C@@H](c3ccc(F)cc3)C2)[nH]1` [Compound 3, 2-[(2S)-2-(4-Fluoro-phenyl)-morpholin-4-yl]-6-(3-fluoro-pyridin-4-yl)-3H-pyrimidin-4-one]: the IC50 was found to be 59.8 nM.

These data come from patent publication US8592417B2, “2-substituted-6-heterocyclic pyrimidone derivatives as tau protein kinase 1 inhibitors” (Mitsubishi Tanabe Pharma Corporation, priority 2006, dated 2013).
